Test results from PubChem BioAssay (NCI).
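Results reflect a 48-hour exposure of cells in 96-well plates to compound at five concentrations. TGI denotes the concentration required for complete inhibition of growth.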 Where a SMILES comes first, the peptide text is derived from it. [ ]: non-standard residue; d: D form. The star is where a group is joined. ξ: configuration not given here. NMeF = CN[C@@H](Cc1ccccc1)C(=O)O; NMeV = CN[C@H](C(=O)O)C(C)C; ξNMeV = CNC(C(=O)O)C(C)C; Boc = CC(C)(C)OC(=O)*; OBn = c1ccc(CO*)cc1

Legend:
Assay in all cases: NCI anticancer screen, dose series, 48 h
XF 498 CNS = test system: XF 498 CNS
MOLT-4 leukemia = test system: MOLT-4 leukemia
ACHN renal = test system: ACHN renal
HCT-15 colon = test system: HCT-15 colon
CAKI-1 renal = test system: CAKI-1 renal
DMS 273 small cell lung = test system: DMS 273 small cell lung
NCI-H23 lung = test system: NCI-H23 lung
UO-31 renal = test system: UO-31 renal
SK-OV-3 ovarian = test system: SK-OV-3 ovarian
TK-10 renal = test system: TK-10 renal
NCI-H522 lung = test system: NCI-H522 lung
SK-MEL-2 melanoma = test system: SK-MEL-2 melanoma
CCRF-CEM leukemia = test system: CCRF-CEM leukemia
SN12C renal = test system: SN12C renal
UACC-257 melanoma = test system: UACC-257 melanoma
OVCAR-3 ovarian = test system: OVCAR-3 ovarian
MALME-3M melanoma = test system: MALME-3M melanoma
KM12 colon = test system: KM12 colon
A549 NSCLC = test system: A549 NSCLC
SF-295 CNS = test system: SF-295 CNS
DLD-1 colon = test system: DLD-1 colon
RXF 393 renal = test system: RXF 393 renal
HCC-2998 colon = test system: HCC-2998 colon
RXF-631 renal = test system: RXF-631 renal
LOX IMVI melanoma = test system: LOX IMVI melanoma
LXFL 529 NSCLC = test system: LXFL 529 NSCLC
OVCAR-5 ovarian = test system: OVCAR-5 ovarian
EKVX NSCLC = test system: EKVX NSCLC
SNB-19 CNS = test system: SNB-19 CNS
HT29 colon = test system: HT29 colon
M19-MEL melanoma = test system: M19-MEL melanoma
NCI-H226 lung = test system: NCI-H226 lung
OVCAR-8 ovarian = test system: OVCAR-8 ovarian
OVCAR-4 ovarian = test system: OVCAR-4 ovarian
786-0 renal = test system: 786-0 renal
UACC-62 melanoma = test system: UACC-62 melanoma
SF-539 CNS = test system: SF-539 CNS
SNB-75 CNS = test system: SNB-75 CNS
M14 melanoma = test system: M14 melanoma
U251 CNS = test system: U251 CNS
NCI-H460 lung = test system: NCI-H460 lung
HOP-92 NSCLC = test system: HOP-92 NSCLC
DMS 114 small cell lung = test system: DMS 114 small cell lung
SK-MEL-28 melanoma = test system: SK-MEL-28 melanoma
KM20L2 colon = test system: KM20L2 colon
HCT-116 colon = test system: HCT-116 colon
IGROV1 ovarian = test system: IGROV1 ovarian
SW-620 colon = test system: SW-620 colon
SF-268 CNS = test system: SF-268 CNS
COLO 205 colon = test system: COLO 205 colon
K-562 leukemia = test system: K-562 leukemia
HOP-62 NSCLC = test system: HOP-62 NSCLC
SK-MEL-5 melanoma = test system: SK-MEL-5 melanoma
SR leukemia = test system: SR leukemia
HL-60(TB) leukemia = test system: HL-60(TB) leukemia
HOP-18 NSCLC = test system: HOP-18 NSCLC
SNB-78 CNS = test system: SNB-78 CNS
RPMI-8226 leukemia = test system: RPMI-8226 leukemia
A498 renal = test system: A498 renal

Cc1ccc(S(=O)(=O)C2CC2(Cl)Cl)cc1 (stereo not drawn)
TGI (XF 498 CNS): 45.2 µM
TGI (MOLT-4 leukemia): 42.1 µM
TGI (ACHN renal): 70.8 µM
TGI (HCT-15 colon): 55.4 µM
TGI (CAKI-1 renal): 86.1 µM
TGI (DMS 273 small cell lung): > 100 µM
TGI (NCI-H23 lung): 62.5 µM
TGI (UO-31 renal): > 100 µM
TGI (SK-OV-3 ovarian): > 100 µM
TGI (TK-10 renal): > 100 µM
TGI (NCI-H522 lung): 26.7 µM
TGI (SK-MEL-2 melanoma): > 100 µM
TGI (CCRF-CEM leukemia): 35 µM
TGI (SN12C renal): 35.8 µM
TGI (UACC-257 melanoma): 44 µM
TGI (OVCAR-3 ovarian): 52.6 µM
TGI (MALME-3M melanoma): 48.8 µM
TGI (KM12 colon): > 100 µM
TGI (A549 NSCLC): > 100 µM
TGI (SF-295 CNS): > 100 µM
TGI (DLD-1 colon): 61.1 µM
TGI (RXF 393 renal): 29.1 µM
TGI (HCC-2998 colon): > 100 µM
TGI (RXF-631 renal): 50.8 µM
TGI (LOX IMVI melanoma): 35.6 µM
TGI (LXFL 529 NSCLC): 34 µM
TGI (OVCAR-5 ovarian): > 100 µM
TGI (EKVX NSCLC): > 100 µM
TGI (SNB-19 CNS): > 100 µM
TGI (HT29 colon): 37.5 µM
TGI (M19-MEL melanoma): 67.7 µM
TGI (NCI-H226 lung): > 100 µM
TGI (OVCAR-8 ovarian): 41 µM
TGI (OVCAR-4 ovarian): 13.8 µM
TGI (786-0 renal): 43.3 µM
TGI (UACC-62 melanoma): 60.4 µM
TGI (SF-539 CNS): > 100 µM
TGI (SNB-75 CNS): > 100 µM
TGI (M14 melanoma): 29.2 µM
TGI (U251 CNS): > 100 µM
TGI (NCI-H460 lung): > 100 µM
TGI (HOP-92 NSCLC): 47.8 µM
TGI (DMS 114 small cell lung): 39.8 µM
TGI (SK-MEL-28 melanoma): > 100 µM
TGI (KM20L2 colon): > 100 µM
TGI (HCT-116 colon): 44.7 µM
TGI (IGROV1 ovarian): 72.1 µM
TGI (SW-620 colon): 44.1 µM
TGI (SF-268 CNS): > 100 µM
TGI (COLO 205 colon): 41.9 µM
TGI (K-562 leukemia): > 100 µM

CCCCCCCCCCCC[N+]12CC[N+](C)(CC1)CC2
TGI (XF 498 CNS): 80 µM
TGI (HOP-62 NSCLC): > 100 µM
TGI (MOLT-4 leukemia): > 100 µM
TGI (ACHN renal): > 100 µM
TGI (CAKI-1 renal): 30.9 µM
TGI (DMS 273 small cell lung): 15.1 µM
TGI (NCI-H23 lung): 60.9 µM
TGI (UO-31 renal): > 100 µM
TGI (SK-MEL-5 melanoma): > 100 µM
TGI (SK-OV-3 ovarian): > 100 µM
TGI (SR leukemia): 26.7 µM
TGI (TK-10 renal): 5.6 µM
TGI (NCI-H522 lung): 46 µM
TGI (SK-MEL-2 melanoma): > 100 µM
TGI (CCRF-CEM leukemia): 53.3 µM
TGI (SN12C renal): > 100 µM
TGI (UACC-257 melanoma): > 100 µM
TGI (OVCAR-3 ovarian): > 100 µM
TGI (MALME-3M melanoma): > 100 µM
TGI (HL-60(TB) leukemia): 40.4 µM
TGI (KM12 colon): 20.7 µM
TGI (A549 NSCLC): > 100 µM
TGI (SF-295 CNS): > 100 µM
TGI (DLD-1 colon): > 100 µM
TGI (RXF 393 renal): 3.34 µM
TGI (HCC-2998 colon): 23 µM
TGI (HOP-18 NSCLC): > 100 µM
TGI (LOX IMVI melanoma): 43 µM
TGI (LXFL 529 NSCLC): > 100 µM
TGI (OVCAR-5 ovarian): 41 µM
TGI (EKVX NSCLC): > 100 µM
TGI (SNB-19 CNS): 38.7 µM
TGI (SNB-78 CNS): 76 µM
TGI (HT29 colon): 51.4 µM
TGI (M19-MEL melanoma): 70.9 µM
TGI (NCI-H226 lung): 66.5 µM
TGI (OVCAR-8 ovarian): > 100 µM
TGI (OVCAR-4 ovarian): > 100 µM
TGI (786-0 renal): 26.8 µM
TGI (RPMI-8226 leukemia): 41.7 µM
TGI (UACC-62 melanoma): > 100 µM
TGI (SF-539 CNS): > 100 µM
TGI (SNB-75 CNS): 37.1 µM
TGI (M14 melanoma): > 100 µM
TGI (U251 CNS): 29.9 µM
TGI (NCI-H460 lung): 26.5 µM
TGI (HOP-92 NSCLC): 47.7 µM
TGI (DMS 114 small cell lung): 44.6 µM
TGI (SK-MEL-28 melanoma): > 100 µM
TGI (KM20L2 colon): 85.9 µM
TGI (HCT-116 colon): > 100 µM
TGI (IGROV1 ovarian): 11.8 µM
TGI (SW-620 colon): > 100 µM
TGI (SF-268 CNS): 53.3 µM
TGI (COLO 205 colon): 16.9 µM
TGI (K-562 leukemia): 53.2 µM

CC(C)C(C(=O)N(C)[C@H](C(=O)N1CCC[C@H]1C(=O)N(C)[C@@H](Cc1ccccc1)C(=O)OCc1ccccc1)C(C)C)N(C)C(=O)[C@@H](NC(=O)OC(C)(C)C)C(C)C (stereo partly drawn) (Boc-V[ξNMeV][NMeV]P[NMeF]-OBn)
TGI (XF 498 CNS): > 31.6 µM
TGI (HOP-62 NSCLC): > 31.6 µM
TGI (MOLT-4 leukemia): 21.3 µM
TGI (ACHN renal): > 100 µM
TGI (HCT-15 colon): > 31.6 µM
TGI (CAKI-1 renal): > 31.6 µM
TGI (DMS 273 small cell lung): > 31.6 µM
TGI (NCI-H23 lung): > 100 µM
TGI (UO-31 renal): > 31.6 µM
TGI (SK-MEL-5 melanoma): 15.5 µM
TGI (SK-OV-3 ovarian): > 31.6 µM
TGI (SR leukemia): > 31.6 µM
TGI (TK-10 renal): > 31.6 µM
TGI (NCI-H522 lung): > 100 µM
TGI (SK-MEL-2 melanoma): > 31.6 µM
TGI (CCRF-CEM leukemia): > 31.6 µM
TGI (SN12C renal): > 100 µM
TGI (UACC-257 melanoma): > 31.6 µM
TGI (OVCAR-3 ovarian): > 100 µM
TGI (MALME-3M melanoma): > 100 µM
TGI (HL-60(TB) leukemia): 8.25 µM
TGI (A498 renal): > 31.6 µM
TGI (A549 NSCLC): > 31.6 µM
TGI (SF-295 CNS): > 31.6 µM
TGI (DLD-1 colon): > 31.6 µM
TGI (RXF 393 renal): > 31.6 µM
TGI (HOP-18 NSCLC): > 100 µM
TGI (LOX IMVI melanoma): > 31.6 µM
TGI (LXFL 529 NSCLC): > 100 µM
TGI (OVCAR-5 ovarian): > 31.6 µM
TGI (EKVX NSCLC): > 31.6 µM
TGI (SNB-19 CNS): > 31.6 µM
TGI (SNB-78 CNS): > 31.6 µM
TGI (HT29 colon): > 31.6 µM
TGI (M19-MEL melanoma): > 31.6 µM
TGI (NCI-H226 lung): > 100 µM
TGI (OVCAR-8 ovarian): > 31.6 µM
TGI (OVCAR-4 ovarian): > 100 µM
TGI (786-0 renal): > 71.3 µM
TGI (RPMI-8226 leukemia): > 31.6 µM
TGI (UACC-62 melanoma): > 31.6 µM
TGI (SF-539 CNS): > 31.6 µM
TGI (SNB-75 CNS): > 100 µM
TGI (M14 melanoma): > 100 µM
TGI (U251 CNS): > 31.6 µM
TGI (NCI-H460 lung): > 31.6 µM
TGI (HOP-92 NSCLC): 30.4 µM
TGI (DMS 114 small cell lung): > 31.6 µM
TGI (SK-MEL-28 melanoma): > 31.6 µM
TGI (KM20L2 colon): > 31.6 µM
TGI (HCT-116 colon): > 31.6 µM
TGI (IGROV1 ovarian): > 31.6 µM
TGI (SW-620 colon): > 31.6 µM
TGI (SF-268 CNS): > 31.6 µM
TGI (COLO 205 colon): 35.2 µM
TGI (K-562 leukemia): 12.6 µM
